{
  "source": "patent US20110129917A1",
  "about": "“CELL ISOLATION METHOD” (priority 2007, published 2011)",
  "test_system": "microorganisms in soil",
  "test": "effect of cell enlargers upon microorganisms in rice paddy soil, observed under a fluorescent microscope after CFDA-AM staining",
  "assay_type": "cell-based",
  "details": "three cell enlargers added together: nalidixic acid 80 μg/g of soil, pipemidic acid 40 μg/g, piromidic acid 40 μg/g; anaerobic, 30° C., 24 hours; comparison without enlargers showed only round or oval cells",
  "description": "As a laboratory model of rice paddy soil where denitrification is active, a 10 mL vial bottle was filled with slightly less than 10 mL of soil (rice paddy soil from Tanashi Farm of the University of Tokyo), a selective substrate of denitrificans (sodium succinate, approximately 5 g/L) and sodium nitrate (approximately 5 g/L) and the gas phase was completely substituted with argon-acetylene. Culture was then carried out anaerobically at 30° C. […] A fluorescent dye CFDA-AM (final concentration 50 μM) was added to the cultured product and the product was observed under a fluorescent microscope (excited in blue, irradiated with blue light) (FIG. 3(b)). In combination, as a comparative example, the fluorescent dye was added and observation was carried out under a microscope with no cell enlargers added (FIG. 3(a)).",
  "data": [
    {"smiles": "CCn1cc(C(=O)O)c(=O)c2cnc(N3CCNCC3)nc21", "note": "[pipemidic acid]", "values": [
      {"measurement": "effect of cell enlargers upon microorganisms in soil (cell shape and size under the microscope)", "value": "elongated and larger cells were also observable"}
    ]},
    {"smiles": "CCn1cc(C(=O)O)c(=O)c2cnc(N3CCCC3)nc21", "note": "[piromidic acid]", "values": [
      {"measurement": "effect of cell enlargers upon microorganisms in soil (cell shape and size under the microscope)", "value": "elongated and larger cells were also observable"}
    ]}
  ]
}
